Test results taken from patent US20070275953A1 (priority 2003, published 2007).
Read-outs that look alike come from different tables or passages of the source.

Assays:
[1] = system: P4 cells; assay: Cytotoxicity (CC50), MTT assay on P4 cells; type: cell-based; settings: 3 days
Experimental: (§1) For the antiviral and the cytotoxicity assays, the drugs were diluted in complete DMEM medium. In these experiments, drugs were diluted in triplicate wells in a 96-well plate in six, 5 fold serial dilutions.
(§2) The 50% cytotoxic concentration (CCso) was determined using a protocol adapted from Pauwels et al. (1988. J. Virol. Methods 20(4):309-21). Briefly, flat bottom 96-well plates were filled with 50 μl of complete medium containing 5.10^3 P4 cells. 2 hours later 50 μl of drug solution were added to the cells. Drugs (dissolved in DMEM, see above) were diluted in six, 5-fold serial dilutions from stock solutions in triplicate wells of a 96-well plate. Cells and compounds were incubated at 37° C. in growth medium for 3 days. Cell viability was determined by MTT assays using the Roche Cell Proliferation KIT. The absorbance (λ=570 nm) was measured on a Benchmark™ Microplate Reader (Biorad) and compared with 12 cell control replicates (no drug added). Each assay was performed at least three times for a total of at least nine replicate wells. This method detects both cytostatic and cytolytic effects of drugs.

[2] = target: T1, HIV-1 reverse transcriptase (Human immunodeficiency virus type 1 group M subtype B, UniProt P04585); assay: HIV-1 in vitro reverse transcriptase activity (fixed-time RNA dependent DNA polymerase assay); type: biochemical; settings: residual RT activity, compound at 10 μM; RT activity without compound set at 100%
T1 construct: fixed-time assay for HIV-1 reverse transcriptase RNA dependent DNA polymerase activity; RT was purchased from Calbiochem; purchased Calbiochem CAL382129-500
Experimental: For the in vitro inhibition studies of the HIV-1 reverse transcriptase activity, stock solutions of the compounds of the present invention were prepared in dimethyl sulfoxide at a final concentration of 10 mM and kept at room temperature. Nevirapine was purchased from Boehringer Ingelheim. Efavirenz was received from the NIH AIDS Research and Reference Reagent Program.
In vitro inhibition studies used a fixed-time assay for HIV-1 reverse transcriptase RNA dependent DNA polymerase activity. RT was purchased from Calbiochem (ref CAL382129-500). One unit of RT corresponds to the amount of enzyme which incorporates one nanomole of [^3H]TTP in 10 minutes at 37° C.
Assays were performed in a final volume of 50 μl. […] Reaction mixtures were incubated at 37° C. for 10 min. The incorporation rate was determined by a standard trichloroacetic acid precipitation procedure (adapted from Current protocols in molecular biology. Eds Wiley, MGH Harvard medical school) and liquid scintillation counting using a Wallac scintillation counter.
The in vitro activity of the compounds, at a final concentration of 10 μM, on the reverse transcriptase (RT) activity of HIV-1 is derivable from the relative (%) reduction in RT activity. Hereby, the RT activity in the absence of any of the compounds is set at 100%.

[3] = system: HIV-1 with WT (wild type) RT in P4 cells; assay: Anti-HIV assay on P4 cell line, WT RT; type: cell-based
Experimental: as §1
(§3) Two days later, co-cultivation with SupT1 cells (a human T-cell lymphoma cell line) was initiated to facilitate rapid production of progeny virions. Production of virus was measured by using the Innotest HIV Antigen mAb p24 kit (Innogenetics). At the peak of production cultures were harvested and filtered. The virus stocks were stored at −80° C. until used.
Anti-HIV activity and cytotoxicity of the compounds were tested on a P4 cell line. […] The P4 cells were cultured in complete DMEM medium supplemented with 10% fetal bovine serum (FBS), 0.5% of Penicillin/Streptomycin and G418 at 0.5 mg/ml. Exponentially growing cells were trypsinized, centrifuged and split twice weekly at 5.10^4 cells/ml.
The P4 cells are HIV-infectible Hela-CD4 cells that carry the bacterial lacZ gene under the control of the HIV-1 long terminal repeat (LTR). In this cell line, transcription of the LacZ gene is driven by the HIV-1 LTR. […] In other words, in this system, the expression level of the β-galactosidase gene is proportional to the viral replication.
(§4) Briefly, in the anti-HIV assay 100 Ål of P4 cells were plated in 96-well plate at a concentration of 0.4 10^5 cells/ml and incubated at 37° C., 5% CO2. After 48 h, the medium was removed and 100 Ål of the different drugs dilutions were added to the cells. Four hours after the addition of the drugs all cells were infected with equal amount of cell-free virus, corresponding to 100 ng of HIV p24 antigen. After 48 h of incubation at 37° C., 5% CO2, β-galactosidase activity was measured using chlorophenol red-β-D-galactopyranoside assays.
Each assay was performed a minimum of three times. The 50% effective concentration (Ec50) was calculated from each dose response curve using the CurveExpert 1.3 software.

[4] = Cytotoxicity (CC50), MTT assay on P4 cells; type: cell-based; settings: human
Experimental: as §1, §2

[5] = system: HIV-1 mutant Cys188RT in P4 cells; assay: Anti-HIV assay on P4 cells, Cys188RT mutant; type: cell-based
Description: (§5) In order to introduce mutation(s) at the level of the pol gene coding for the RT in the pNL4-3 plasmid containing the complete viral genome (Adachi et al., 1986. J. Virol., Vol. 59 p 284-291) we used the “Quick change mutagenesis kit” (Stratagene). The following mutations were separately introduced in pNL4-3: L100I, K103N, V108I, Y181C, Y188C, and the double mutations K103N/V108I. These mutations were chosen because of the resistance that they confer to existing NNRTI. The production procedure of the mutant viral stocks is identical to the one described above.
Anti-HIV activity and cytotoxicity of the compounds were tested on a P4 cell line. The P4 cell line (Clavel & Charneau, 1994. J. Virol., Vol. 68 p 1179-1185) was provided by Dr. François Clavel (Unité de recherche antivirale de l'hôpital Xavier Bichat Paris: Inserm). The P4 cells were cultured in complete DMEM medium supplemented with 10% fetal bovine serum (FBS), 0.5% of Penicillin/Streptomycin and G418 at 0.5 mg/ml. Exponentially growing cells were trypsinized, centrifuged and split twice weekly at 5.10^4 cells/ml.
The P4 cells are HIV-infectible Hela-CD4 cells that carry the bacterial lacZ gene under the control of the HIV-1 long terminal repeat (LTR). In this cell line, transcription of the LacZ gene is driven by the HIV-1 LTR. As such, the cytoplasmic accumulation of β-galactosidase is strictly dependent on the presence of the HIV transactivator Tat produced during the intracellular viral replication (Clavel & Charneau, 1994. J. Virol., Vol. 68, p. 1179-1185). In other words, in this system, the expression level of the β-galactosidase gene is proportional to the viral replication.
as §4
The absorbance was measured on a Benchmark™ Microplate Reader (Biorad) (λ=570 nm) and compared with 12 cell control replicates (no virus or drug added) and 12 virus control wells (no drug added). Each assay was performed a minimum of three times. The 50% effective concentration (Ec50) was calculated from each dose response curve using the CurveExpert 1.3 software. As Nevirapine activity corresponds to its published values (10-100 nM), the data are consistent with other measures of viral replication.

[6] = system: HIV-1 mutant Asn103/Ile108RT in TZM-bl cells; assay: Anti-HIV assay on TZM-bl cells, Asn103/Ile108RT double mutant; type: cell-based; settings: TZM-bl, double mutant Asn103/Ile108RT; read-out: EC50 Asn103/Ile108RT TZM-bl
Description: as §5
(§6) Anti-HIV activity and cytotoxicity of the compounds were tested on the TZM-b1 cell line. The TZM-b1 cell line (Wei et al. 2002. Antimicrob. Agents Chemother. Vol. 46, p 1896-1905) was received from the NIH AIDS Research and Reference Reagent Program. These cells were cultured in complete DMEM medium supplemented with 10% fetal bovine serum (FBS), and 1% Penicillin/Streptomycin. Exponentially growing cells were trypsinized, centrifuged and split twice weekly at 5 10^4 cells/ml.
(§7) The anti-HIV assay with TZM-b1 cells is essentially the same as described above with P4 cells. The main difference between the two cell lines is that the TZM-b1 cells express at their surface both the CD4 and CCR5 proteins, acting as receptor and co-receptor for HIV entry, respectively (Wei et al. 2002. Antimicrob. Agents Chemother. Vol. 46, p 1896-1905). This feature makes the cells very sensitive to infection by the virus. The TMZ-b1 cells were infected with equal amount of cell-free virus, corresponding to 10 ng of HIV p24 antigen. This amount is ten times lower than the amount used to infect the P4 cells.

[7] = system: HIV-1 mutant Cys188RT in TZM-bl cells; assay: Anti-HIV assay on TZM-bl cells, Cys188RT mutant; type: cell-based; settings: TZM-bl, mutant Cys188RT; read-out: EC50 Cys188RT TZM-bl
Description: as §5, §6, §7

[8] = system: HIV-1 mutant Cys181RT in TZM-bl cells; assay: Anti-HIV assay on TZM-bl cells, Cys181RT mutant; type: cell-based; settings: TZM-bl, mutant Cys181RT; read-out: EC50 Cys181RT TZM-bl
Description: as §5, §6, §7

[9] = system: HIV-1 with WT (wild type) RT in TZM-bl cells; assay: Anti-HIV assay on TZM-bl cell line, WT RT; type: cell-based
Experimental: as §3, with “Wurzburg Jurkat T cells (subclone JR) were transfected with 10 μg of the circularly permuted infectious molecular clone HIVNL4-3 (Adachi et al., 1986. J. Virol, 59 (2), p 284-291). Two” for “Two”
as §6, §7

[10] = P4 cell line, WT RT, read-out: EC50 WT
[11] = Table 8, effect of the R2 substituent, cell line not given, read-out: EC50 Cys188RT
[12] = Table 8, effect of the R2 substituent, cell line not given, read-out: EC50 WT
[13] = Human immunodeficiency virus 1, P4 cell line, WT RT, read-out: EC50 WT

For `CCOC(=O)c1c(OC2CC(C)CC(C)C2)c(CC)c(C)[nH]c1=O` (single isomer, unassigned) [Z37A], the CC50 [1] was 63000 nM, the “Relative (%) RT activity in vitro (compound added at 10 μM)” value (“Relative (%) RT activity in vitro” for short) [2] was 7.6% and the EC50 [3, 10] was 240 nM.

For `CCOC(=O)c1c(OC(=O)C=C(C)C)c(CC)c(C)[nH]c1=O` [M18, ethyl 5-ethyl-6-methyl-4-[(3-methylbut-2-enoyl)oxy]-2-oxo-1,2-dihydropyridine-3-carboxylate], the CC50 at 3 days [4] was over 100000 nM, the “Relative (%) RT activity in vitro” value [2] was 70.8% and the melting point was 166 °C. The EC50 ([3]; Human immunodeficiency virus 1, read-out: EC50 WT) was 5820 nM and the “SI (selectivity index = CC50/EC50)” value ([3]; P4 cell line, WT RT) was over 17.

For `CCOC(=O)c1c(OC2CCCCC2Cl)c(CC)c(C)[nH]c1=O` (centres unmarked) [Z12], the CC50 [1] was over 100000 nM, the “Relative (%) RT activity in vitro” value [2] was 63.7% and the EC50 [3, 10] was 3090 nM.

With `CCOC(=O)c1c(OC2CCCCCC2)c(CC)c(C)[nH]c1=O` [Z25] the “activity on Cys188 mutant strains compared with the cyclohexyl derivative” value [5] was “more active on Cys188 mutant strains than the cyclohexyl derivative”, the EC50 [5, 11] was 3280 nM and the CC50 [1] was 81000 nM. The “Relative (%) RT activity in vitro” value [2] was 34.6%, the EC50 [3, 10] was 480 nM and the EC50 [3, 12] was 480 nM.

With `CCOC(=O)c1c(OC2CCCC(C)C2)c(CC)c(C)[nH]c1=O` (centres unmarked) [Z30] the CC50 [1] was over 100000 nM, the “Relative (%) RT activity in vitro” value [2] was 22.0% and the EC50 [3, 10] was 520 nM.

With `CCc1c(C)[nH]c(=O)c(CO)c1OC1CCCCCC1` [Z32, 4-(cycloheptyloxy)-3-(hydroxymethyl)-5-ethyl-6-methylpyridin-2(1H)-one] the CC50 at 3 days [4] was 55000 nM, the “Relative (%) RT activity in vitro” value [2] was 44.0% and the melting point was 146 °C. For the same compound, the EC50 [3, 13] was 1160 nM and the “SI (selectivity index = CC50/EC50)” value ([3]; P4 cell line, WT RT) was 47.

With `CCc1c(C)[nH]c(=O)c(COC(=O)CCl)c1OC1CCCCCC1` [Z33, [4-(cycloheptyloxy)-5-ethyl-6-methyl-2-oxo-1,2-dihydropyridin-3-yl]methyl chloroacetate] the CC50 at 3 days [4] was 54000 nM, the “Relative (%) RT activity in vitro” value [2] was 42.0% and the melting point was 123 °C. For the same compound, the EC50 [3, 13] was 1030 nM and the “SI (selectivity index = CC50/EC50)” value ([3]; P4 cell line, WT RT) was 52.

With `CCOC(=O)c1c(OC2CC(C)CC(C)C2)c(CC)c(C)[nH]c1=O` (centres unmarked) [Z37, ethyl 4-[(3,5-dimethylcyclohexyl)oxy]-5-ethyl-6-methyl-pyridine-2(1H)-one-3-carboxylate] the “activity on Cys188 mutant strains compared with the cyclohexyl derivative” value [5] was “more active on Cys188 mutant strains than the cyclohexyl derivative”, the EC50 ([5]; Human immunodeficiency virus 1, read-out: EC50 Cys188RT) was 6 nM and the CC50 at 3 days [4] was 58000 nM. For the same compound, the “Relative (%) RT activity in vitro” value [2] was 8.3%, the melting point was 108 °C and the EC50 [3, 13] was 43 nM. For the same compound, the “SI (selectivity index = CC50/EC50)” value ([3]; P4 cell line, WT RT) was 1349.

For `CCc1c(C)[nH]c(=O)c(C(=O)OCCN(CC)CC)c1OC1CC(C)CC(C)C1` (centres unmarked) [Z53], the “Relative (%) RT activity in vitro” value [2] was 34.3%.

For `CCOC(=O)c1c(OC2CCCCCCC2)c(CC)c(C)[nH]c1=O` [Z54], the CC50 [1] was 58000 nM, the “Relative (%) RT activity in vitro” value [2] was 24% and the EC50 [3, 10] was 1350 nM.

For `CCOC(=O)c1c(OC2CCC(CC)CC2)c(CC)c(C)[nH]c1=O` (centres unmarked) [Z55], the “Relative (%) RT activity in vitro” value [2] was 40.3%.

In the case of `CCc1c(C)[nH]c(=O)c(N)c1OC1CC(C)CC(C)C1` (centres unmarked) [Z96inv], the “Relative (%) RT activity in vitro” value [2] is reported as 25.4%.

`CCc1c(C)[nH]c(=O)c(CC)c1OC1CC(C)CC(C)C1` (centres unmarked) [Z167] showed an EC50 [6] of 129 nM, an EC50 [7] of under 1 nM and an EC50 [8] of 7 nM. The EC50 [9] was under 1 nM.

Compound `CCOC(=O)c1c(OC2CCCC2)c(CC)c(C)[nH]c1=O` [reference compound] has an EC50 [3, 12] of 1910 nM.

`CCOC(=O)c1c(OC2CCCCC2)c(CC)c(C)[nH]c1=O` [reference compound] showed an EC50 [5, 11] of 6500 nM and an EC50 [3, 12] of 770 nM.
